Assays:
[1] = target: CYP3A4 (Homo sapiens, UniProt P08684); test: Half life of the compound assessed as CYP3A4 (unknown origin)-mediated drug metabolism; type: ADME
[2] = species on record: Homo sapiens; test: Selectivity ratio of Ki for human MT2 receptor to Ki for human MT1 receptor
[3] = target: T1, Melatonin receptor type 1A (Homo sapiens, UniProt P48039); test: Displacement of [125I]2-iodomelatonin from human MT1 receptor expressed in CHO cells; type: cell-based
[4] = target: T2, Melatonin receptor type 1B (Homo sapiens, UniProt P49286); test: Displacement of [125I]2-iodomelatonin from human MT2 receptor expressed in CHO cells; type: cell-based
T2 sequence (P49286 whole entry): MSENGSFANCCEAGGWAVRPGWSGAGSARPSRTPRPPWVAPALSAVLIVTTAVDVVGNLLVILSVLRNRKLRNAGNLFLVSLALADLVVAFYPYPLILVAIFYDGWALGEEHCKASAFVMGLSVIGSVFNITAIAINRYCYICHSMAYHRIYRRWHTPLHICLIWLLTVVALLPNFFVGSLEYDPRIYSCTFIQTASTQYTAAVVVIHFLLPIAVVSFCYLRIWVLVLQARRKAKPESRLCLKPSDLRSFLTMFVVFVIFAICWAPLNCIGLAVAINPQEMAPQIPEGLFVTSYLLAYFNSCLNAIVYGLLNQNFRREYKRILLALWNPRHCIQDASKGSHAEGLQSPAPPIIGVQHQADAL

[5] = Partial agonist activity at melatonin receptor in chicken brain membranes assessed as cAMP level; type: cell membranes, Gallus gallus, Membrane
[6] = target: T2, Melatonin receptor type 1B; test: Displacement of [125I]2-iodomelatonin from MT2 receptor (unknown origin) expressed in HEK293 cells; type: cell-based
[7] = species on record: Homo sapiens; test: Selectivity ratio of Ki for MT1 receptor (unknown origin) to Ki for MT2 receptor (unknown origin)
[8] = species on record: Homo sapiens; test: Selectivity ratio of Ki for human recombinant MT1 receptor to Ki for human recombinant MT2 receptor
[9] = target: T1, Melatonin receptor type 1A; test: Binding affinity to MT1 receptor (unknown origin) expressed in HEK293 cells; type: cell-based
[10] = target: T2, Melatonin receptor type 1B; test: Binding affinity to MT2 receptor (unknown origin) expressed in HEK293 cells; type: cell-based
[11] = target: T1, Melatonin receptor type 1A; test: Binding affinity to MT1 receptor (unknown origin) expressed in HEK cells; type: cell-based, HEK293
[12] = species on record: Homo sapiens; test: Selectivity ratio of Ki for MT2 receptor (unknown origin) to Ki for MT1 receptor (unknown origin)
[13] = target: T2, Melatonin receptor type 1B; test: Binding affinity to MT2 receptor (unknown origin) expressed in HEK cells; type: cell-based, HEK293
[14] = target: T1, Melatonin receptor type 1A; test: Agonist activity at MT1 receptor (unknown origin) expressed in mouse NIH3T3 cells assessed as inhibition of forskolin-induced cAMP accumulation; type: functional, cell-based
[15] = target: T2, Melatonin receptor type 1B; test: Agonist activity at MT2 receptor (unknown origin) expressed in mouse NIH3T3 cells assessed as inhibition of forskolin-induced cAMP accumulation; type: functional, cell-based
[16] = target: T2, Melatonin receptor type 1B; test: Displacement of [125I]2-iodomelatonin from human recombinant MT2 receptor expressed in African green monkey COS7 cells; type: cell-based, COS-7
[17] = target: T1, Melatonin receptor type 1A; test: Antagonist activity at MT1 receptor (unknown origin) assessed as cAMP accumulation; type: functional
[18] = target: T2, Melatonin receptor type 1B; test: Antagonist activity at MT2 receptor (unknown origin) expressed in mouse NIH3T3 cells by [35S]GTPgammaS binding assay; type: functional
[19] = target: T1, Melatonin receptor type 1A; test: Antagonist activity at MT1 receptor (unknown origin) expressed in mouse NIH3T3 cells by [35S]GTPgammaS binding assay; type: functional
[20] = target: T1, Melatonin receptor type 1A; test: biochemical

T1 sequence (P48039 whole entry): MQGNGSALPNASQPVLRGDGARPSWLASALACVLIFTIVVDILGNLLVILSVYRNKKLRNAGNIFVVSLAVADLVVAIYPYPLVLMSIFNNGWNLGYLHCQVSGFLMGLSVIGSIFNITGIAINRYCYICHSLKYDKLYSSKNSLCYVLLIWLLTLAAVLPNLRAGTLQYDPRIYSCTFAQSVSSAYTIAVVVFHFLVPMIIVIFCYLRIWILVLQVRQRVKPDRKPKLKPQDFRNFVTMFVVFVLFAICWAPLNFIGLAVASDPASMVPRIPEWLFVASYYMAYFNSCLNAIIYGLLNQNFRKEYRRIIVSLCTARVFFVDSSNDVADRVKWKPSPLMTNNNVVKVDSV
Chain of CYP3A4 (P08684 whole entry): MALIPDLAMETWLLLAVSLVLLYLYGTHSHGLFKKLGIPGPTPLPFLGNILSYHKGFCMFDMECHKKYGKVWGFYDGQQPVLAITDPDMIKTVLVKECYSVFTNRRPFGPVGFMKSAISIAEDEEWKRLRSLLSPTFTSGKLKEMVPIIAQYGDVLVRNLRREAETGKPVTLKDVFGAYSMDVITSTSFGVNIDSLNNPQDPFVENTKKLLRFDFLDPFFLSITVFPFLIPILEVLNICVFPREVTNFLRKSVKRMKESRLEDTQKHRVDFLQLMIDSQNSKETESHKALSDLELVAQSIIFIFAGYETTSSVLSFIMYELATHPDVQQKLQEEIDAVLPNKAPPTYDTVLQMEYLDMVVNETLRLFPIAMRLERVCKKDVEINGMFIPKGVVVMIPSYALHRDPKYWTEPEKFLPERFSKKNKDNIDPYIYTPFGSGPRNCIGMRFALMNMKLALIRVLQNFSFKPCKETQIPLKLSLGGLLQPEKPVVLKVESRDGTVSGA

Compound `COc1ccc2[nH]cc(CCNC(C)=O)c2c1` [MELATONIN] has a half-life [1] of 20 min.

In the case of `CC(=O)NCCc1c[nH]c2ccc(OCCCc3ccccc3)cc12`, the Ratio Ki [2] is reported as 10, the Ki [3] is reported as 3.9 nM and the Ki [4] is reported as 49 nM.

Work on `CCCC(=O)NCCCc1cccc2c1OCCO2` yielded a Ki [5] of 2.4 nM.

`COc1cccc(Cc2oc3ccc(OC)cc3c2CCNC(C)=O)c1` showed a Ki [6] of 0.33 nM and a Ratio Ki [7] of 123.

Work on `CC(=O)NCCc1c(Cc2ccccc2)[nH]c2ccccc12` yielded a Ratio Ki [8] of 15.

For `CCCNC(=O)CCCc1cccc2c1SCCO2`, the IC50 [9] was 2.3 nM and the IC50 [10] was 6.7 nM.

Work on `CC(=O)NCCc1cccc2ccc(-c3ccc4cccc(CCNC(C)=O)c4c3)cc12` yielded a Ki [3] of 5.2 nM and a Ki [4] of 246 nM.

With `CCCCCCOc1ccc2c(c1)C(CCNC(C)=O)CCO2` (stereo unspecified) the Ki [11] was 1.2 nM, the Ratio Ki [12] was 25 and the Ki [13] was 29 nM. It also gave a Ki [3] of 3.4 nM and a Ki [4] of 21.4 nM.

With `CCOC(=O)c1[nH]c2ccc(OC)c3c2c1[C@@H](CNC(C)=O)CC3` the Ki [14] was 0.18 nM and the Ki [15] was 0.29 nM.

`C=CCC(=O)NCCc1c(Cc2cccc(OC)c2)oc2ccc(OC)cc12` showed a Ratio Ki [7] of 192.

In the case of `COc1cc2c(CCNC(C)=O)c(C)[nH]c2cc1Cl`, the Ki [16] is reported as 2.2 nM.

`COc1cc2c(cc1OC)C(CC(c1ccccc1)c1ccccc1)N(C(C)=O)CC2` (stereo unspecified) gave an IC50 [17] greater than 1000 nM.

Compound `COc1ccc2oc(Cc3ccccc3)c(CCNC(C)=O)c2c1` has a Ratio Ki [7] of 23.

`COc1ccc2c(c1)C(CNC(C)=O)Cc1ccccc1C2` (stereo unspecified) showed a Ki [18] of 1.3 nM and a Ki [19] of 27 nM.

`COc1cc2[nH]cc(CCNC(C)=O)c2cc1OC` showed a Ki [16] of 3.5 nM, a Ki [20] of 207 nM and a Ratio Ki [8] of 60.

With `CC(=O)NCCc1c[nH]c2ccc(OCCCOc3ccccc3)cc12` the Ratio Ki [2] was 10, the Ki [3] was 7.9 nM and the Ki [4] was 87 nM.

For `O=C(NCCCc1cccc2nc(CCCCc3ccccc3)oc12)C1CC1`, the Ratio Ki [2] was 35.

`CC(=O)NCCc1cccc2ccc(OCCCCOc3ccc4cccc(CCNC(C)=O)c4c3)cc12` showed a Ratio Ki [12] of 122, a Ratio Ki [2] of 54 and a Ki [3] of 3.1 nM. It also gave a Ki [4] of 167 nM.

Compound `CCC(=O)NC1Cc2ccccc2C(c2ccccc2)C1` (racemic) has a Ki [20] of 501 nM and a Ratio Ki [8] of 330.

In the case of `CC(=O)NCCc1cccc2ccc(OCCCOc3ccc4cccc(CCNC(C)=O)c4c3)cc12`, the Ratio Ki [2] is reported as 3, the Ki [3] is reported as 3.9 nM and the Ki [4] is reported as 149 nM.

With `CCCC(=O)NCCc1c2n(c3ccc(OC)cc13)CCCc1ccccc1-2` the Ratio Ki [8] was 132.

Compound `CC(=O)NCCN(C)c1cccc(OCCCCc2ccccc2)c1` has a Ki [15] of 91.2 nM.

Work on `COc1cc2c(cc1OC)C(CCc1ccccc1)N(C(C)=O)CC2` (stereo unspecified) yielded an IC50 [17] greater than 1000 nM.

In the case of `COc1ccc2[nH]c(Cc3ccccc3)c(CCNC(C)=O)c2c1`, the Ratio Ki [8] is reported as 130.

In the case of `CCCC(=O)NCCc1c2n(c3ccc(OC)cc13)Cc1ccccc1-2`, the Ratio Ki [8] is reported as 89.

— ChEMBL document CHEMBL3259722, “MT1 and MT2 melatonin receptors: ligands, models, oligomers, and therapeutic potential” (J Med Chem, 2014)
